Test [1] addresses T1, μ-calpain (Homo sapiens, UniProt P07384).
T1 sequence (P07384 1-714): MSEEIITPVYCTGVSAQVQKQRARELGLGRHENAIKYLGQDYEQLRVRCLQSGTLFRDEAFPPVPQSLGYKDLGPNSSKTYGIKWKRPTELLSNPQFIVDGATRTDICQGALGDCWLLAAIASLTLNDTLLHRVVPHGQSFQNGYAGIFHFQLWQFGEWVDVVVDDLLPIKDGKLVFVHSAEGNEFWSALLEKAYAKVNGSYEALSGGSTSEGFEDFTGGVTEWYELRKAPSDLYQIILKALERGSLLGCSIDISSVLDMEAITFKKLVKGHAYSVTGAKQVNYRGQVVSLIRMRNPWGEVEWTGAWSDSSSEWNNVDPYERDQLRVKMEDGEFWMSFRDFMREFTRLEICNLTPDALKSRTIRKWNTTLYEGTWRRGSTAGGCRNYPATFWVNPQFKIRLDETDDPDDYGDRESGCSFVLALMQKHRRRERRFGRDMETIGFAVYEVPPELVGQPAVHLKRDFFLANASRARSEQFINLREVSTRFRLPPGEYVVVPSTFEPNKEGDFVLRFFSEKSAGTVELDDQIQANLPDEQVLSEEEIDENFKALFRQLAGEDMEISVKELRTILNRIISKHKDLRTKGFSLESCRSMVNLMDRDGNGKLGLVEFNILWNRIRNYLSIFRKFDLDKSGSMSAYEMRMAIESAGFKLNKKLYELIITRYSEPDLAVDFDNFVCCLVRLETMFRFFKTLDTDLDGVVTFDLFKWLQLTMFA
The note with it: off-target; cited from earlier work.

Test [2] relates to CT-26 WT mouse colon cancer cells. Description: proliferation assay (MTS), CT-26.WT. Type of test: cell-based. Conditions: 20 μg/ml, vs DMSO. The method, then: Bone marrow derived macrophages (BMDM) were prepared as previously described by methods known to those skilled in the art. On day 5 of culture, 2×10^6 BMDM were seeded in 6-well plates and the following day were primed for 18 h with TNFα (20 ng/mL), followed by 1 h stimulation with E. faecalis (1 μg/mL; ATCC). Stimulation with E. faecalis was conducted in the presence of the zLLY-CH2F calpain-2 inhibitor (20 μg/mL) or DMSO as a control. Media was removed from treated BMDM, centrifuged at 300×g for 5 min and supernatent analyzed using the Cytometric Bead Array Mouse Inflammation Kit (BD Biosciences, San Jose, Calif.). Cytokine data were analyzed using Flowjo software (Ashland, Oreg.) and GraphPad Prism version 4.0 (GraphPad, La Jolla, Calif.). Cell pellets were lysed and analyzed for IκB and NFκB by Western blot as previously described (Miyazaki, T. et al. Journal of Atherosclerosis and Thrombosis 20, 228-237, 2013). […] Each day 4 wells were quantified using Celltiter MTS reagent (Promega) and the resulting signal was used to generate a proliferation curve. Calpain activity was measured using a Calpain activity assay kit (BioVision, Inc., Milpitas, Calif.) as previously described. Colons were harvested on day 4 and calpain activity measured. […]

Where a SMILES comes first, the peptide text is derived from it. The star is where a group is joined. Cbz = O=C(OCc1ccccc1)*; CH2F = FC*

Take `CC(C)C[C@H](NC(=O)OCc1ccccc1)C(=O)N[C@@H](CC(C)C)C(=O)N[C@@H](Cc1ccc(O)cc1)C(=O)CF` [zLLY-CH2F, Z-LLY-CH2F] (Cbz-Leu-Leu-Tyr-CH2F): in test [1], the “inhibition of μ-calpain” value was “not known to inhibit”. In test [2], the proliferation entry is “reduction”.

Values taken from patent US20160279187A1, “CALPAIN INHIBITORS FOR IBD AND COLORECTAL CANCER TREATMENT” (UNIVERSITY OF HAWAII, priority 2013, published 2016).
